This note sets out measurements from patent publication EP0153678A1, “Cinnamic acid derivatives, processes for the preparation thereof and pharmaceutical compositions” (Tanabe Seiyaku Co., Ltd., priority 1984, dated 1985).

The structures appear in SMILES notation. Where a name gives a salt, the structure may show the parent alone.

For series [1], the system named is pulmonary embolism induced by arachidonic acid. In words: Prophylactic effect against pulmonary embolism induced by arachidonic acid in mice (method of Kohler et al.). The class given is in vivo. The settings on record: for Evalu-tion (shortening rate of the recovery time): ddY male mice, test compound 30 mg/kg orally in 0.25 % CMC, after one hour arachidonic acid 70 mg/kg intravenously; for prophylactic effect against arachidonic acid-induced pulmonary embolism, relative to 3-[4-(3-pyridylmethyl)phenyl]-2-methylacrylic acid hydrochloride: Kohler et al.'s method, times as strong as the known compound. As for the experimental part: After one hour, arachidonic acid (70 mg/10 ml saline solution/kg) was intravenously administered. […] The time from having had difficulty in breathing and laying till starting to move was counted as a recovery time. When the test animal was died, the longest recovery time during the test was counted. The shortening rate of the recovery time was calculated by the following formula for showing the effect of the test compounds.

Series [2] in a line: Toxicity compared with the known compound (method not described). Conditions: fraction of the toxicity of the sodium salt of the known compound.

`CC(=Cc1ccc(C(O)c2cccnc2)cc1)C(=O)O` (stereo not drawn) [α-methyl-4-(α-hydroxy-3-pyridylmethyl)cinnamic acid hydrochloride]: in series [1], the “Evalu-tion (shortening rate of the recovery time)” value (“Evalu-tion” for short) was “+ (evaluated as (+) when it was more than 50 %)”.

In the case of `CCOC(c1ccc(C=C(C)C(=O)[O-])cc1)c1cccnc1.[Na+]` (stereo not drawn) [sodium α-methyl-4-(α-ethoxy-3-pyridylmethyl)cinnamate], the “toxicity relative to sodium 3-[4-(3-pyridylmethyl)phenyl]-2-methyl--acrylate” value in series [2] was “about half”. For the same compound, in series [1], the “prophylactic effect against arachidonic acid-induced pulmonary embolism, relative to 3-[4-(3-pyridylmethyl)phenyl]-2-methylacrylic acid hydrochloride” value is given as “more than 2 times” and the “Evalu-tion” value is recorded as “+ (evaluated as (+) when it was more than 50 %)”.

Consider `CC(=Cc1ccc(C(=O)c2cccnc2)cc1)C(=O)O` [hydrochloride], for which the “Evalu-tion” value in series [1] is “+ (evaluated as (+) when it was more than 50 %)”.

Turning to `CCCOC(c1ccc(C=C(C)C(=O)[O-])cc1)c1cccnc1.[Na+]` (stereo not drawn) [sodium α-methyl-4-(α-n-propoxy-3-pyridylmethyl)cinnamate], the “Evalu-tion” value in series [1] is recorded as “+ (evaluated as (+) when it was more than 50 %)”.

With `COC(c1ccc(C=C(C)C(=O)O)cc1)c1cccnc1` (stereo not drawn) [sodium α-methyl-4-(α-methoxy-3-pyridylmethyl)cinnamate], the “Evalu-tion” value in series [1] is on record as “+ (evaluated as (+) when it was more than 50 %)”.

`CC(=Cc1ccc(Cc2cccnc2)cc1)C(=O)O.Cl` [3-[4-(3-pyridylmethyl)phenyl]-2-methylacrylic acid hydrochloride, reference compound]: the “Evalu-tion” value in series [1] is recorded as “± (evaluated as (±) when it was from 20 % to less than 50 %)”.

Regarding `CC(=Cc1ccc(C(O)c2cccnc2)cc1)C(=O)O` (stereo not drawn) [α-methyl-4-(α-hydroxy-3-pyridylmethyl)cinnamic acid], the “prophylactic effect against arachidonic acid-induced pulmonary embolism, relative to 3-[4-(3-pyridylmethyl)phenyl]-2-methylacrylic acid hydrochloride” value in series [1] was “more than 2 times”.
